# Assay results reported in PubChem BioAssay (NCI).
#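 Five compound concentrations were applied to cells in 96-well plates for 48 hours; endpoints were derived by simple linear interpolation of the resulting dose-response curve. At the TGI there is no net growth.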
# Tests used:
# Assay in all cases: NCI anticancer screen, dose series, 48 h
# HCT-116 colon = system: HCT-116 colon
# NCI-H460 lung = system: NCI-H460 lung
# 786-0 renal = system: 786-0 renal
# SF-295 CNS = system: SF-295 CNS
# HOP-62 NSCLC = system: HOP-62 NSCLC
# MDA-N = system: MDA-N
# MOLT-4 leukemia = system: MOLT-4 leukemia
# COLO 205 colon = system: COLO 205 colon
# SK-MEL-2 melanoma = system: SK-MEL-2 melanoma
# SK-OV-3 ovarian = system: SK-OV-3 ovarian
# U251 CNS = system: U251 CNS
# M14 melanoma = system: M14 melanoma
# TK-10 renal = system: TK-10 renal
# HT29 colon = system: HT29 colon
# SNB-75 CNS = system: SNB-75 CNS
# SK-MEL-5 melanoma = system: SK-MEL-5 melanoma
# BT-549 breast = system: BT-549 breast
# IGROV1 ovarian = system: IGROV1 ovarian
# MCF7 breast = system: MCF7 breast
# MALME-3M melanoma = system: MALME-3M melanoma
# NCI-H23 lung = system: NCI-H23 lung
# HCC-2998 colon = system: HCC-2998 colon
# K-562 leukemia = system: K-562 leukemia
# SF-268 CNS = system: SF-268 CNS
# NCI/ADR-RES ovarian = system: NCI/ADR-RES ovarian
# OVCAR-4 ovarian = system: OVCAR-4 ovarian
# PC-3 prostate = system: PC-3 prostate
# KM12 colon = system: KM12 colon
# NCI-H522 lung = system: NCI-H522 lung
# RXF 393 renal = system: RXF 393 renal
# A549 NSCLC = system: A549 NSCLC
# SNB-19 CNS = system: SNB-19 CNS
# OVCAR-8 ovarian = system: OVCAR-8 ovarian
# ACHN renal = system: ACHN renal
# MDA-MB-435 = system: MDA-MB-435
# SF-539 CNS = system: SF-539 CNS
# A498 renal = system: A498 renal
# T-47D breast = system: T-47D breast
# MDA-MB-231 breast = system: MDA-MB-231 breast
# UO-31 renal = system: UO-31 renal
# UACC-62 melanoma = system: UACC-62 melanoma
# CCRF-CEM leukemia = system: CCRF-CEM leukemia
# EKVX NSCLC = system: EKVX NSCLC
# HS 578T breast = system: HS 578T breast
# HCT-15 colon = system: HCT-15 colon
# SR leukemia = system: SR leukemia
# DU-145 prostate = system: DU-145 prostate
# OVCAR-5 ovarian = system: OVCAR-5 ovarian
# UACC-257 melanoma = system: UACC-257 melanoma
# SN12C renal = system: SN12C renal
# RPMI-8226 leukemia = system: RPMI-8226 leukemia
# CAKI-1 renal = system: CAKI-1 renal
# NCI-H226 lung = system: NCI-H226 lung
structure (smiles),measurement,setting,value
Cc1cc(N(CCC#N)CCC#N)ccc1/C(N=Nc1ccc(C(=O)O)cc1)=N\NC(=O)c1ccccc1,TGI,HCT-116 colon,> 100 µM
same,TGI,NCI-H460 lung,> 100 µM
same,TGI,786-0 renal,> 100 µM
same,TGI,SF-295 CNS,> 100 µM
same,TGI,HOP-62 NSCLC,> 100 µM
same,TGI,MDA-N,> 100 µM
same,TGI,MOLT-4 leukemia,> 100 µM
same,TGI,COLO 205 colon,> 100 µM
same,TGI,SK-MEL-2 melanoma,> 100 µM
same,TGI,SK-OV-3 ovarian,> 100 µM
same,TGI,U251 CNS,> 100 µM
same,TGI,M14 melanoma,> 100 µM
same,TGI,TK-10 renal,> 100 µM
same,TGI,HT29 colon,41.2 µM
same,TGI,SNB-75 CNS,> 100 µM
same,TGI,SK-MEL-5 melanoma,> 100 µM
same,TGI,BT-549 breast,> 100 µM
same,TGI,IGROV1 ovarian,> 100 µM
same,TGI,MCF7 breast,> 100 µM
same,TGI,MALME-3M melanoma,> 100 µM
same,TGI,NCI-H23 lung,> 100 µM
same,TGI,HCC-2998 colon,> 100 µM
same,TGI,K-562 leukemia,> 100 µM
same,TGI,SF-268 CNS,> 100 µM
same,TGI,NCI/ADR-RES ovarian,> 100 µM
same,TGI,OVCAR-4 ovarian,> 100 µM
same,TGI,PC-3 prostate,> 100 µM
same,TGI,KM12 colon,> 100 µM
same,TGI,NCI-H522 lung,38.5 µM
same,TGI,RXF 393 renal,> 100 µM
same,TGI,A549 NSCLC,> 100 µM
same,TGI,SNB-19 CNS,> 100 µM
same,TGI,OVCAR-8 ovarian,> 100 µM
same,TGI,ACHN renal,> 100 µM
same,TGI,MDA-MB-435,> 100 µM
same,TGI,SF-539 CNS,57 µM
same,TGI,A498 renal,84.4 µM
same,TGI,T-47D breast,> 100 µM
same,TGI,MDA-MB-231 breast,> 100 µM
same,TGI,UO-31 renal,> 100 µM
same,TGI,UACC-62 melanoma,> 100 µM
same,TGI,CCRF-CEM leukemia,> 100 µM
same,TGI,EKVX NSCLC,> 100 µM
same,TGI,HS 578T breast,55.5 µM
same,TGI,HCT-15 colon,> 100 µM
same,TGI,SR leukemia,> 100 µM
same,TGI,DU-145 prostate,> 100 µM
same,TGI,OVCAR-5 ovarian,> 100 µM
same,TGI,UACC-257 melanoma,> 100 µM
same,TGI,SN12C renal,> 100 µM
same,TGI,RPMI-8226 leukemia,> 100 µM
same,TGI,CAKI-1 renal,> 100 µM
same,TGI,NCI-H226 lung,> 100 µM
